Assay results: US4742049A, “Semisynthetic erythromycin antibiotics” (Abbott Laboratories, priority 1986, dated 1988)
Converted amounts (≈) assume the structure as drawn. “And” between values parts separate entries of the source, which are not always exact repeats. Identical values can stand only once. Like-named read-outs stand apart in the source and are kept apart here.

Key:
Providencia stuartii = assay: antimicrobial spectrum, agar dilution MIC; type: cell-based; details: strain CMX 640, BHI agar, 20-24 hours
Protocol: (§1) Twelve petri dishes containing successive aqueous dilutions of the test compound mixed with 10 ml of sterilized Brain Heart Infusion agar (Difco 0418-01-5) are prepared. Each plate is inoculated with 1:100 (or 1:10 for slow-growing strains, primarily Micrococcus and Streptococcus) dilutions of up to 32 different microorganisms, using a Steers replicator block. The inoculated plates are incubated at 35°-37° C. for 20-24 hours. In addition, a control plate, using BHI agar containing no test compound, is prepared and incubated at the beginning and end of each test.
(§2) An additional plate containing a compound having known susceptibility patterns for the organisms being tested and belonging to the same antibiotic class as the test compound is also prepared and incubated as a further control, as well as to provide test-to-test comparability.
(§3) After incubation, each disk is read. The MIC is defined as the lowest concentration of drug yielding no growth, a slight haze, or sparsely isolated colonies on the inoculum spot as compared to the growth control.

Pseudomonas aeruginosa = assay: antimicrobial spectrum, agar dilution MIC; type: cell-based; details: BHI agar, 20-24 hours
Protocol: as §1, §2, §3

Staph. aureus = assay: antimicrobial spectrum, agar dilution MIC; type: cell-based; details: Staphylococcus aureus, BHI agar, 20-24 hours
Protocol: as §1, §2, §3

Staph. epidermidis = assay: antimicrobial spectrum, agar dilution MIC; type: cell-based; details: Staphylococcus epidermidis, BHI agar, 20-24 hours
Protocol: as §1, §2, §3

Strep. agalactiae = assay: antimicrobial spectrum, agar dilution MIC; type: cell-based; details: Streptococcus agalactiae; strain CMX 633; BHI agar, 20-24 hours; read-out: MIC
Protocol: as §1, §2, §3

Strep. bovis = assay: antimicrobial spectrum, agar dilution MIC; type: cell-based; details: Streptococcus equinus, strain A5169; BHI agar, 20-24 hours; read-out: MIC
Protocol: as §1, §2, §3

Strep. faecalis = assay: antimicrobial spectrum, agar dilution MIC; type: cell-based; details: Enterococcus faecalis, BHI agar, 20-24 hours
Protocol: as §1, §2, §3

Strep. faecium = assay: antimicrobial spectrum, agar dilution MIC; type: cell-based; details: Enterococcus faecium, BHI agar, 20-24 hours
Protocol: as §1, §2, §3

Strep. pneumoniae = assay: antimicrobial spectrum, agar dilution MIC; type: cell-based; details: Streptococcus pneumoniae, BHI agar, 20-24 hours
Protocol: as §1, §2, §3

Strep. pyogenes = assay: antimicrobial spectrum, agar dilution MIC; type: cell-based; details: BHI agar, 20-24 hours
Protocol: as §1, §2, §3

Micrococcus luteus = assay: antimicrobial spectrum, agar dilution MIC; type: cell-based; details: strain 4698, BHI agar, 20-24 hours
Ent. aerogenes = assay: antimicrobial spectrum, agar dilution MIC; type: cell-based
Klebsiella pneumoniae = assay: antimicrobial spectrum, agar dilution MIC; type: cell-based; details: strain 8045, BHI agar, 20-24 hours
Pseudomonas cepacia = assay: antimicrobial spectrum, agar dilution MIC; type: cell-based; details: strain 2961, BHI agar, 20-24 hours
Protocol: Erythromycin A was used for this purpose.
After incubation, each disk is read.

Staph. saprophyticus = assay: microbe, parasite or virus in culture; details: Staphylococcus saprophyticus, ATCC15305
Protocol: as §1, §2, §3

Staph. aureus NCTC 10649 = assay: acute mouse protection test; details: for ED50: Staphylococcus aureus, NCTC10649, in Mus musculus, 168 h, dosed 1 and 5 hours post-infection, observed 7 days; for # Died: ten mice
Protocol: The acute mouse protection test is conducted on ten mice with each of three levels of drug.
The acute mouse protection test is conducted on female, Swiss albino mice, 18-20 grams in weight. The mice are injected intraperitoneally with an 18-hour culture of the indicated test organism diluted sufficiently to provide the desired LD50 value. To check the potency of the inoculum, a titration of the indicated test organism is carried out in control animals. […] The ED50 values are calculated using the mortality data collected.

CC[C@H]1OC(=O)[C@H](C)[C@@H](O[C@H]2C[C@@](C)(OC)[C@@H](O)[C@H](C)O2)[C@H](C)[C@@H](O[C@@H]2O[C@H](C)C[C@H](N(C)C)[C@H]2O)[C@](C)(O)C[C@@H](C)C(=O)[C@H](C)[C@@H](O)[C@]1(C)O [Erythromycin A]
MIC (Providencia stuartii): > 100 mg/L
MIC (Providencia stuartii; read-out: MIC): > 200 mg/L
MIC (Pseudomonas aeruginosa; Pseudomonas aeruginosa, strain 5007): 200 mg/L (≈ 273 µM)
MIC (Pseudomonas aeruginosa; Pseudomonas aeruginosa, strain BMH10): 100 mg/L (≈ 136 µM)
MIC (Pseudomonas aeruginosa; Pseudomonas aeruginosa, strain K799/61): 1.56 mg/L (≈ 2.13 µM)
MIC (Pseudomonas aeruginosa; Pseudomonas aeruginosa, strain K799/WT): 200 mg/L (≈ 273 µM)
MIC (Pseudomonas aeruginosa; strain 5007): > 100 mg/L
MIC (Pseudomonas aeruginosa; strain K799/WT): > 100 mg/L and 100 mg/L
MIC (Staph. aureus; ATCC6538P, strain ATCC 6538P, read-out: MIC): 0.12 mg/L (≈ 0.164 µM)
MIC (Staph. aureus; ATCC25923, strain ATCC 25923, read-out: MIC): 0.06 mg/L (≈ 0.0818 µM)
MIC (Staph. aureus; NCTC10649, strain NCTC 10649, read-out: MIC): 0.06 mg/L (≈ 0.0818 µM)
MIC (Staph. aureus; strain 45 RAR 2): 0.2 mg/L (≈ 0.273 µM)
MIC (Staph. aureus; strain 642A, read-out: MIC): 0.12 mg/L (≈ 0.164 µM)
MIC (Staph. aureus; strain A5177, read-out: MIC): 0.78 mg/L (≈ 1.06 µM)
MIC (Staph. aureus; strain CMX 686B, read-out: MIC): 0.12 mg/L (≈ 0.164 µM)
MIC (Staph. aureus; strain CMX 705, read-out: MIC): 0.06 mg/L (≈ 0.0818 µM)
MIC (Staph. aureus; strain CMX 730A, read-out: MIC): 0.06 mg/L (≈ 0.0818 µM)
MIC (Staph. aureus; strain CMX 739A, read-out: MIC): 0.06 mg/L (≈ 0.0818 µM)
MIC (Staph. aureus; strain GYR 1150, read-out: MIC): 0.06 mg/L (≈ 0.0818 µM)
MIC (Staph. aureus; strain GYR 1162, read-out: MIC): 0.06 mg/L (≈ 0.0818 µM)
MIC (Staph. epidermidis; strain 3519, read-out: MIC): 0.21 mg/L (≈ 0.286 µM)
MIC (Staph. epidermidis; strain 3519 RARI): 0.2 mg/L (≈ 0.273 µM)
MIC (Staph. epidermidis; strain CMX 728, read-out: MIC): 0.06 mg/L (≈ 0.0818 µM)
MIC (Staph. epidermidis; strain GYR 1151, read-out: MIC): 0.12 mg/L (≈ 0.164 µM)
MIC (Strep. agalactiae): 0.015 mg/L (≈ 0.0204 µM)
MIC (Strep. bovis): 0.01 mg/L (≈ 0.0136 µM)
MIC (Strep. faecalis; strain CMX 663F): 2 mg/L (≈ 2.73 µM)
MIC (Strep. faecalis; strain CMX 729G): 0.5 mg/L (≈ 0.681 µM)
MIC (Strep. faecalis; strain CMX 736F): 0.5 mg/L (≈ 0.681 µM)
MIC (Strep. faecalis; strain GYR 1164): 0.5 mg/L (≈ 0.681 µM)
MIC (Strep. faecalis; strain GYR 1166): 0.5 mg/L (≈ 0.681 µM)
MIC (Strep. faecalis; strain GYR 1167): 4 mg/L (≈ 5.45 µM)
MIC (Strep. faecium; ATCC8043, strain ATCC 8043): 0.1 mg/L (≈ 0.136 µM)
MIC (Strep. faecium; ATCC8043, strain ATCC 8043, read-out: MIC): 0.06 mg/L (≈ 0.0818 µM)
MIC (Strep. pneumoniae; strain 78-008107): 32 mg/L (≈ 43.6 µM)
MIC (Strep. pneumoniae; strain CMX 635, read-out: MIC): 0.015 mg/L (≈ 0.0204 µM)
MIC (Strep. pneumoniae; strain CMX 698, read-out: MIC): 0.008 mg/L (≈ 0.0109 µM)
MIC (Strep. pyogenes; Streptococcus pyogenes, strain 930, read-out: MIC): > 200 mg/L
MIC (Strep. pyogenes; Streptococcus pyogenes, strain C203, read-out: MIC): 0.002 mg/L (≈ 0.00273 µM)
MIC (Strep. pyogenes; Streptococcus pyogenes, strain EES61, read-out: MIC): 0.06 mg/L (≈ 0.0818 µM)
MIC (Strep. pyogenes; Streptococcus pyogenes, strain M79061-98): 1 mg/L (≈ 1.36 µM)
MIC (Strep. pyogenes; Streptococcus pyogenes, strain M79061-139, read-out: MIC): 0.015 mg/L (≈ 0.0204 µM)
MIC (Strep. pyogenes; Streptococcus pyogenes, strain M79061-140, read-out: MIC): 0.008 mg/L (≈ 0.0109 µM)
MIC (Strep. pyogenes; strain 930): > 100 mg/L
MIC (Micrococcus luteus): 0.1 mg/L (≈ 0.136 µM)
MIC (Ent. aerogenes; Klebsiella aerogenes, ATCC10348): 100 mg/L (≈ 136 µM)
MIC (Ent. aerogenes; Klebsiella aerogenes, ATCC13048, strain ATCC 13048, BHI agar, 20-24 hours, read-out: MIC): 50 mg/L (≈ 68.1 µM)
MIC (Ent. aerogenes; strain ATCC 10348, BHI agar, 20-24 hours): 50 mg/L (≈ 68.1 µM)
MIC (Klebsiella pneumoniae): 50 mg/L (≈ 68.1 µM)
MIC (Pseudomonas cepacia; Burkholderia cepacia, read-out: MIC): 200 mg/L (≈ 273 µM)
MIC (Pseudomonas cepacia): > 100 mg/L
MIC (Staph. saprophyticus): 0.03 mg/L (≈ 0.0409 µM)
ED50 (Staph. aureus NCTC 10649; po, dosage medium Carboxymethylcellulose): 48.8 mg/kg
ED50 (Staph. aureus NCTC 10649; po, dosage medium PBS): 75.7 mg/kg
ED50 (Staph. aureus NCTC 10649; sc, subcutaneous, dosage medium Injectable solution): 10.9 mg/kg
# Died (Staph. aureus NCTC 10649; oral, Carboxymethylcellulose, 15.6 mg/kg): 8
# Died (Staph. aureus NCTC 10649; oral, Carboxymethylcellulose, 37.5 mg/kg): 5
# Died (Staph. aureus NCTC 10649; oral, Carboxymethylcellulose, 250.0 mg/kg): 0
# Died (Staph. aureus NCTC 10649; oral, PBS, 15.6 mg/kg): 10
# Died (Staph. aureus NCTC 10649; oral, PBS, 37.5 mg/kg): 4
# Died (Staph. aureus NCTC 10649; oral, PBS, 250.0 mg/kg): 0
# Died (Staph. aureus NCTC 10649; subcutaneous, Injectable solution, 2.5 mg/kg): 10
# Died (Staph. aureus NCTC 10649; subcutaneous, Injectable solution, 10.0 mg/kg): 6
# Died (Staph. aureus NCTC 10649; subcutaneous, Injectable solution, 40.0 mg/kg): 0
